From patent publication US12378224B2 (Dong-A Socio Holdings Co., Ltd., priority 2016, dated 2025) come the findings set out here.

As a reminder, the IC50 is the midpoint of a concentration-inhibition curve.

The test concerns the target human MER (528-end) (Homo sapiens (Human), UniProt Q12866). As to the kind of experiment: HTRF Kinase Activity Biochemical Assay (KinEASE-TK). As to conditions: 10 uM ATP. A digest of the protocol:
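Activity read-out is the HTRF ratio (665 nm over 620 nm emission, ×10,000; excitation 340 nm) after 1 h detection with 0.375 nM Eu3+-cryptate anti-TK antibody plus 0.062 uM SA-XL665. Preceding kinase step: human MER (528-end), biotinylated TK substrate, 1 h, room temperature.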
In general terms: In TR-FRET formats the signal depends on donor and acceptor labels being close together.

The structures appear in SMILES notation.

Sequence of human MER (528-end) (Q12866 528-999 limits assumed): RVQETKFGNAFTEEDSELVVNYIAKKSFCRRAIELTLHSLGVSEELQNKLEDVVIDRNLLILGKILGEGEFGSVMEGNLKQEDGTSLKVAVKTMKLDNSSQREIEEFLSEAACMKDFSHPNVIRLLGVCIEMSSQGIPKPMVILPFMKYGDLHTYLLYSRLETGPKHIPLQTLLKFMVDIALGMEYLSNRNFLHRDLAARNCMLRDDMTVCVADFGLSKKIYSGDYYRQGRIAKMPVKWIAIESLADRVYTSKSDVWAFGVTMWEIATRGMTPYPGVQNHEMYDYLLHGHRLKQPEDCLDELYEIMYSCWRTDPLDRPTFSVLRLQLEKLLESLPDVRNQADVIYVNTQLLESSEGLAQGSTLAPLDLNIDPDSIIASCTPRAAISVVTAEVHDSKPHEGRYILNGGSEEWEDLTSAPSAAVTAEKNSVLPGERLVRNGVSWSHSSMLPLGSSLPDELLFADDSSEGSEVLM

`Cn1cc(-c2cnc(N)c(C(=O)N[C@@H]3CCN(C(=O)c4ccc(-c5cccc(C(=O)N6CCNCC6)c5)cc4)C3)c2)cn1` [Example 466, (R)-2-amino-5-(1-methyl-1H-pyrazol-4-yl)-N-(1-(3′-(piperazine-1-carbonyl)-[1,1′-biphenyl]-4-carbonyl)pyrrolidin-3-yl)nicotinamide] showed an IC50 of 100 to 1000 nM.

In the case of `Cn1cc(-c2cnc(N)c(C(=O)N[C@@H]3CCN(C(=O)c4ccc(-c5ccc(C(=O)N6CCNCC6)cc5)cc4)C3)c2)cn1` [Example 467, (R)-2-amino-5-(1-methyl-1H-pyrazol-4-yl)-N-(1-(4′-(piperazine-1-carbonyl)-[1,1′-biphenyl]-4-carbonyl)pyrrolidin-3-yl)nicotinamide], the half-maximal inhibitory concentration (IC50) is more than 1000 nM.

`Cc1nn(C)cc1-c1cccc(C(=O)N2CC[C@@H](NC(=O)c3cc(-c4cnn(C)c4)cnc3N)C2)c1` [Example 469, (R)-2-amino-N-(1-(3-(1,3-dimethyl-1H-pyrazol-4-yl)benzoyl)pyrrolidin-3-yl)-5-(1-methyl-1H-pyrazol-4-yl)nicotinamide] gave a concentration for half-maximal inhibition (IC50) of more than 1000 nM.

On to `Cn1cc(-c2cnc(N)c(C(=O)N[C@@H]3CCN(C(=O)c4cccc(-c5cnn(C6CCCC6)c5)c4)C3)c2)cn1` [Example 470, (R)-2-amino-N-(1-(3-(1-cyclopentyl-1H-pyrazol-4-yl)benzoyl)pyrrolidin-3-yl)-5-(1-methyl-1H-pyrazol-4-yl)nicotinamide], for which the half-maximal inhibitory concentration (IC50) is more than 1000 nM.

`Cn1cc(-c2cnc(N)c(C(=O)N[C@@H]3CCN(C(=O)c4cccc(-c5cccnc5)c4)C3)c2)cn1` [Example 472, (R)-2-amino-5-(1-methyl-1H-pyrazol-4-yl)-N-(1-(3-(pyridin-3-yl)benzoyl)pyrrolidin-3-yl)nicotinamide] had an IC50 of more than 1000 nM.

In the case of `Cn1cc(-c2cnc(N)c(C(=O)N[C@@H]3CCN(C(=O)c4cccc(-c5ccncc5)c4)C3)c2)cn1` [Example 473, (R)-2-amino-5-(1-methyl-1H-pyrazol-4-yl)-N-(1-(3-(pyridin-4-yl)benzoyl)pyrrolidin-3-yl)nicotinamide], the IC50 is more than 1000 nM.

Take `Cn1cc(-c2cnc(N)c(C(=O)N[C@@H]3CCN(C(=O)c4cccc(-c5cc6ccccc6s5)c4)C3)c2)cn1` [Example 474, (R)-2-amino-N-(1-(3-(benzo[b]thiophen-2-yl)benzoyl)pyrrolidin-3-yl)-5-(1-methyl-1H-pyrazol-4-yl)nicotinamide]: the IC50 is more than 1000 nM.

The compound `CN1CCN(c2cccc(-c3cccc(C(=O)N4CC[C@@H](NC(=O)c5cc(-c6cnn(C)c6)cnc5N)C4)c3)c2)CC1` [Example 476, (R)-2-amino-5-(1-methyl-1H-pyrazol-4-yl)-N-(1-(3′-(4-methylpiperazin-1-yl)-[1,1′-biphenyl]-3-carbonyl)pyrrolidin-3-yl)nicotinamide] returned an IC50 of more than 1000 nM.

The compound `Cn1cc(-c2cnc(N)c(C(=O)N[C@@H]3CCN(C(=O)c4cccc(-c5ccccc5Cl)c4)C3)c2)cn1` [Example 478, (R)-2-amino-N-(1-(2′-chloro-[1,1′-biphenyl]-3-carbonyl)pyrrolidin-3-yl)-5-(1-methyl-1H-pyrazol-4-yl)nicotinamide] yielded an IC50 of more than 1000 nM.

Consider `Cn1cc(-c2cnc(N)c(C(=O)N[C@@H]3CCN(C(=O)c4cccc(-c5cccc(Cl)c5)c4)C3)c2)cn1` [Example 479, (R)-2-amino-N-(1-(3′-chloro-[1,1′-biphenyl]-3-carbonyl)pyrrolidin-3-yl)-5-(1-methyl-1H-pyrazol-4-yl)nicotinamide], for which the IC50 was more than 1000 nM.

`Cn1cc(-c2cnc(N)c(C(=O)N[C@@H]3CCN(C(=O)c4cccc(-c5ccnc(N6CCNCC6)c5)c4)C3)c2)cn1` [Example 480, (R)-2-amino-5-(1-methyl-1H-pyrazol-4-yl)-N-(1-(3-(2-(piperazin-1-yl)pyridin-4-yl)benzoyl)pyrrolidin-3-yl)nicotinamide]: the IC50 is more than 1000 nM.

Turning to `Cn1cc(-c2cnc(N)c(C(=O)N[C@@H]3CCN(C(=O)c4cccc(-c5cccc(NS(C)(=O)=O)c5)c4)C3)c2)cn1` [Example 481, (R)-2-amino-5-(1-methyl-1H-pyrazol-4-yl)-N-(1-(3′-(methylsulfonamido)-[1,1′-biphenyl]-3-carbonyl)pyrrolidin-3-yl)nicotinamide], the IC50 is more than 1000 nM.

Take `Cc1ccc(C(=O)N2CC[C@@H](NC(=O)c3cc(-c4cnn(C)c4)cnc3N)C2)cc1-c1ccccc1` [Example 482, (R)-2-amino-5-(1-methyl-1H-pyrazol-4-yl)-N-(1-(6-methyl-[1,1′-biphenyl]-3-carbonyl)pyrrolidin-3-yl)nicotinamide]: the concentration for half-maximal inhibition (IC50) was more than 1000 nM.

Consider `Cc1ccc(C(=O)N2CC[C@@H](NC(=O)c3cc(-c4cnn(C)c4)cnc3N)C2)cc1-c1ccccc1Cl` [Example 483, (R)-2-amino-N-(1-(2′-chloro-6-methyl-[1,1′-biphenyl]-3-carbonyl)pyrrolidin-3-yl)-5-(1-methyl-1H-pyrazol-4-yl)nicotinamide], for which the half-maximal inhibitory concentration (IC50) is more than 1000 nM.

In turn, `Cc1ccc(C(=O)N2CC[C@@H](NC(=O)c3cc(-c4cnn(C)c4)cnc3N)C2)cc1-c1cccc(Cl)c1` [Example 484, (R)-2-amino-N-(1-(3′-chloro-6-methyl-[1,1′-biphenyl]-3-carbonyl)pyrrolidin-3-yl)-5-(1-methyl-1H-pyrazol-4-yl)nicotinamide] yielded a 50% inhibitory concentration (IC50) of more than 1000 nM.

In turn, `Cc1cc(C(=O)N2CC[C@@H](NC(=O)c3cc(-c4cnn(C)c4)cnc3N)C2)c(N)c(-c2ccccc2)c1` [Example 485, (R)-2-amino-N-(1-(2-amino-5-methyl-[1,1′-biphenyl]-3-carbonyl)pyrrolidin-3-yl)-5-(1-methyl-1H-pyrazol-4-yl)nicotinamide] showed an IC50 of 100 to 1000 nM.

As to `Cc1nn(C)cc1-c1ccc(C(=O)N2CC[C@@H](NC(=O)c3cc(-c4cnn(C)c4)cnc3N)C2)cc1` [Example 488, (R)-2-amino-N-(1-(4-(1,3-dimethyl-1H-pyrazol-4-yl)benzoyl)pyrrolidin-3-yl)-5-(1-methyl-1H-pyrazol-4-yl)nicotinamide], the 50% inhibitory concentration (IC50) lay in the range of 100 to 1000 nM.

Compound `Cn1cc(-c2cnc(N)c(C(=O)N[C@@H]3CCN(C(=O)c4ccc(-c5cc6ccccc6s5)cc4)C3)c2)cn1` [Example 490, (R)-2-amino-N-(1-(4-(benzo[b]thiophen-2-yl)benzoyl)pyrrolidin-3-yl)-5-(1-methyl-1H-pyrazol-4-yl)nicotinamide] displayed a half-maximal inhibitory concentration (IC50) of more than 1000 nM.

`Cn1cc(-c2cnc(N)c(C(=O)N[C@@H]3CCN(C(=O)c4ccc(-c5ccnc(N6CCNCC6)c5)cc4)C3)c2)cn1` [Example 491, (R)-2-amino-5-(1-methyl-1H-pyrazol-4-yl)-N-(1-(4-(2-(piperazin-1-yl)pyridin-4-yl)benzoyl)pyrrolidin-3-yl)nicotinamide] came in with an IC50 of 100 to 1000 nM.

Regarding `Cn1cc(-c2cnc(N)c(C(=O)N[C@@H]3CCN(C(=O)c4ccc(-c5ccc(N6CCOCC6)cc5)cc4)C3)c2)cn1` [Example 492, (R)-2-amino-5-(1-methyl-1H-pyrazol-4-yl)-N-(1-(4′-morpholino-[1,1′-biphenyl]-4-carbonyl)pyrrolidin-3-yl)nicotinamide], the IC50 was more than 1000 nM.

Turning to `Cn1cc(-c2cnc(N)c(C(=O)N[C@@H]3CCN(C(=O)c4ccc(-c5ccc(C(=O)N6CCOCC6)cc5)cc4)C3)c2)cn1` [Example 493, (R)-2-amino-5-(1-methyl-1H-pyrazol-4-yl)-N-(1-(4′-(morpholine-4-carbonyl)-[1,1′-biphenyl]-4-carbonyl)pyrrolidin-3-yl)nicotinamide], the IC50 is more than 1000 nM.

`CC1=C(C(=O)N2CC[C@@H](NC(=O)c3cc(-c4cnn(C)c4)cnc3N)C2)Cc2ccccc21` [Example 497, (R)-2-amino-N-(1-(3-methyl-1H-indene-2-carbonyl)pyrrolidin-3-yl)-5-(1-methyl-1H-pyrazol-4-yl)nicotinamide]: the IC50 is more than 1000 nM.

In turn, `Cn1cc(-c2cnc(N)c(C(=O)N[C@@H]3CCN(C(=O)c4cccc5[nH]ccc45)C3)c2)cn1` [Example 504, (R)—N-(1-(1H-indole-4-carbonyl)pyrrolidin-3-yl)-2-amino-5-(1-methyl-1H-pyrazol-4-yl)nicotinamide] showed a concentration for half-maximal inhibition (IC50) of more than 1000 nM.

On to `Cn1cc(-c2ccc(C(=O)N3CC[C@@H](NC(=O)c4cc(-c5cnn(C)c5)cnc4N)C3)cc2)cn1` [Example 506, (R)-2-amino-5-(1-methyl-1H-pyrazol-4-yl)-N-(1-(4-(1-methyl-1H-pyrazol-4-yl)benzoyl)pyrrolidin-3-yl)nicotinamide], for which the half-inhibitory concentration (IC50) lay in the range of 100 to 1000 nM.

In the case of `Cc1nn(C)c(C)c1-c1ccc(C(=O)N2CC[C@@H](NC(=O)c3cc(-c4cnn(C)c4)cnc3N)C2)cc1` [Example 507, (R)-2-amino-5-(1-methyl-1H-pyrazol-4-yl)-N-(1-(4-(1,3,5-trimethyl-1H-pyrazol-4-yl)benzoyl)pyrrolidin-3-yl)nicotinamide], the 50% inhibitory concentration (IC50) is 100 to 1000 nM.

`Cn1cc(-c2cnc(N)c(C(=O)N[C@@H]3CCN(C(=O)c4ccc(-c5cnn(C6CCCC6)c5)cc4)C3)c2)cn1` [Example 508, (R)-2-amino-N-(1-(4-(1-cyclopentyl-1H-pyrazol-4-yl)benzoyl)pyrrolidin-3-yl)-5-(1-methyl-1H-pyrazol-4-yl)nicotinamide] returned an IC50 of more than 1000 nM.

Take `Cn1cc(-c2cnc(N)c(C(=O)N[C@@H]3CCN(C(=O)c4ccc(-c5cnn(C6CCOCC6)c5)cc4)C3)c2)cn1` [Example 509, (R)-2-amino-5-(1-methyl-1H-pyrazol-4-yl)-N-(1-(4-(1-(tetrahydro-2H-pyran-4-yl)-1H-pyrazol-4-yl)benzoyl)pyrrolidin-3-yl)nicotinamide]: the IC50 was more than 1000 nM.

`Cn1cc(-c2cnc(N)c(C(=O)N[C@@H]3CCN(C(=O)c4ccc(-c5cnn(C6CCNCC6)c5)cc4)C3)c2)cn1` [Example 510, (R)-2-amino-5-(1-methyl-1H-pyrazol-4-yl)-N-(1-(4-(1-(piperidin-4-yl)-1H-pyrazol-4-yl)benzoyl)pyrrolidin-3-yl)nicotinamide]: the half-inhibitory concentration (IC50) is more than 1000 nM.

In the case of `Cn1cc(-c2cnc(N)c(C(=O)N[C@@H]3CCN(C(=O)c4cc5cc(-c6ccccc6)ccc5o4)C3)c2)cn1` [Example 512, (R)-2-amino-5-(1-methyl-1H-pyrazol-4-yl)-N-(1-(5-phenylbenzofuran-2-carbonyl)pyrrolidin-3-yl)nicotinamide], the IC50 is more than 1000 nM.
